According to US20190022135A1, “TREATMENT FOR CHITIN-CONTAINING MICROORGANISMS” (Benchmark Animal Health Limited, priority 2016, published 2019):

Assays:
Saprolegnia spores = assay: Saprolegnia spore viability in biofilms (CellTiter 96 MTS assay); format: cell-based; details: 4 h
Protocol: The effect of treating Saprolegnia-spores with combinations of boric acid and propionic acid was investigated in biofilm preparations since this is one of the most challenging conditions under which effects can be tested.
Spores were produced to form biofilms. Saprolegnia hyphae were excised from GY agar plates and then incubated in GY broth (15±1° C., 2 days), giving additional hyphal growth. Young hyphae were washed in SAW, transferred to two glass bottles containing one liter of SAW and incubated at 21±1° C. (24 h) to allow zoospore production. Suspensions of zoospores were filtered (tea filter, 0.5 mm pores) resulting in zoospore encystment. Cysts were counted by hemocytometer, the cyst suspensions were adjusted to 1.0±104 spores/L. The suspension was then used in the biofilm formation studies (chambered cover glass system) within 3 h of counting.
Treatment with BA and/or PA was for 4 hours in stagnate, aerated water after which the water circulation was resumed. Biofilm preparations were tested for viability as described (Ali et al. 2014). In brief, CellTiter 96 aqueous one solution cell proliferation assay (Promega) was used. The test is based on tetrazolium compound [3-(4,5-dimethylthiazol-2-yl)-5-(3-carboxy-methoxyphenyl)-2-(4-sulfophenyl)-2H-tetrazolium, inner salt; MTS] being reduced by viable cells resulting in the formation of formazan products from MTS. The reaction is based on mitochondrial enzymes being active (dehydrogenase) (Lopes et al. 2013), and is an indicator of metabolic rate of the mitochondria.
Tests were run in 72-well plates with biofilm formed in the wells. BA and/or PA was then added to each tested well (except controls) at increasing concentrations, 1-4 g/L for BA and 31.4 to 125.6 mM/L for PA. Bronopol was used as a positive treatment but at 300 mg/L concentration, and SAW as negative control. Wells with the MTS reagent without spores were used as a background control. The plates were incubated at 15-20° C. Reading was done following 4 h incubation of BA and PA. Formazan product was measured at 490 nm. MTS reduction is proportional to the number and activity of live spores. Spore viability was calculated by: % viability=100×(OD490 value for the sample−mean background OD490)/(mean OD490 for non-treated water control−mean background OD490).

sea lice = assay: In vivo studies: number of attached sea lice after treatment; details: 2.75 ppm/L PA only, 15 min exposure, 4 days post treatment
Protocol: Water salinity: […]; Temperature: 8.5° C.; Oxygen: minimum 8 mg/L in water during treatment (8-10 mg/L measured).

Saprolegnia sp. = assay: Effect on Saprolegnia zoospores, spores and hyphae (stated finding)
[1] = test system: eggs and/or fry of Atlantic salmon; details: 50 mg/L treatment for 1 h; cited from earlier work

SMILES: CCC(=O)O [PA, propionic acid]
- viability (OD value) (Saprolegnia spores; PA 4 ml added (equivalent to 125.6 mM/L), biofilm): lower OD value
- viability, statistical evaluation against 4 g/L of BA (Saprolegnia spores; PA (4 ml)): significantly lower viability
- reduction of the number of attached sea lice (sea lice): Reduced the number of attached sea lice by 30%
- effect on spores and hyphae (Saprolegnia sp.): direct toxic effect

SMILES: O=[N+]([O-])C(Br)(CO)CO [Pyzece, Bronopol]
- viability level (OD value) (Saprolegnia spores; 300 mg/L, biofilm, compared with BA and PA combination (approx. 0.3)): same viability level
- egg toxicity [1]: egg mortality

SMILES: OB(O)O [BA, boric acid]
- viability (OD value) (Saprolegnia spores; BA from 1 g/L up to 4 g/L, biofilm): declining viability
- effect on zoospore production and release and on zoosporangia (Saprolegnia sp.): interferes with the production and subsequent release of zoospores
